US10654867B2 (Genentech, Inc., priority 2016, dated 2020)

biological target: T1, estrogen receptor alpha (ESR1) in MCF7 breast cancer cells (Homo sapiens, UniProt P03372); test: Breast Cancer Cell ERa High Content Fluorescence Imaging Degradation Assay (ER-alpha MCF7 HCS); assay type: cell-based; design: endogenous in cells; host or cells: MCF7 breast cancer cells; key to ERalpha (WT) MCF7HCS (Sinf): % change in ERα level; DMSO = 0%, fulvestrant = 100% change; settings: 4 hours, plateau of the maximal effect, DMSO and fulvestrant define 0% and 100% change in ESR1, Table 1a
T1 sequence (P03372 1-595): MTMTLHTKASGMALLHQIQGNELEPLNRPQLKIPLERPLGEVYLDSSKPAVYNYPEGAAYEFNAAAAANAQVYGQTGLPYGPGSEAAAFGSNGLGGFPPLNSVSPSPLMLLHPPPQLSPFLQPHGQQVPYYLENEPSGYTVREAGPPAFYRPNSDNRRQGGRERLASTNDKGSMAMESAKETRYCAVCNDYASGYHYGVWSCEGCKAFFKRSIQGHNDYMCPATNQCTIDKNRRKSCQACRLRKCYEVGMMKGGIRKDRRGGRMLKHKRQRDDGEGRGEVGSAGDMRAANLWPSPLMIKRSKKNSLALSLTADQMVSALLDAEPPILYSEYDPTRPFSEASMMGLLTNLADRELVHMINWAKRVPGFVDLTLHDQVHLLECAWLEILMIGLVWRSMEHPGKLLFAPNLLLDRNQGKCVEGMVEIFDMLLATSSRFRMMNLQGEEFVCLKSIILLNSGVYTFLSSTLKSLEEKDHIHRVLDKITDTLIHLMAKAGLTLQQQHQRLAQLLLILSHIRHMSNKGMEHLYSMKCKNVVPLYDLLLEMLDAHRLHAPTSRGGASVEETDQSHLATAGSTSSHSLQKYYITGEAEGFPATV
How it was run: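 MCF7 cells in phenol red-free RPMI with 10% charcoal-stripped FBS were exposed 4 h at 37 °C to 10-point 1.8× dilutions (0.05–835 nM final, 0.84% DMSO); fulvestrant served as control. After fixation, ESR1 was immunostained (F10 mAb, Alexa488) with Hoechst nuclear masking, and nuclear ESR1 fluorescence was quantified by imaging.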

ER-alpha MCF7HCS Sinf [%] | SMILES
−75 | CC1Cc2[nH]c3ccccc3c2C(c2c(F)cc(NC3CN(CCCF)C3)cc2F)N1CCF (stereo not drawn) [Example 149, (□)-N-(3,5-difluoro-4-(2-(2-fluoroethyl)-3-methyl-2,3,4,5-tetrahydro-1H-pyrido[4,3-b]indol-1-yl)phenyl)-1-(3-fluoropropyl) azetidin-3-amine]
−99 | C[C@@H]1Cc2[nH]c3ccccc3c2[C@@H](c2c(F)cc(NC3CN(CCCF)C3)cc2F)N1CC(F)(F)F [Example 152, N-(3,5-difluoro-4-((1S,3R)-3-methyl-2-(2,2,2-trifluoroethyl)-2,3,4,5-tetrahydro-1H-pyrido[4,3-b]indol-1-yl)-phenyl)-1-(3-fluoropropyl) azetidin-3-amine]
−30 | C[C@H]1Cc2[nH]c3ccccc3c2[C@H](c2c(F)cc(NC3CN(CCCF)C3)cc2F)N1CC(F)(F)F [Example 153, N-(3,5-difluoro-4-((1R,3S)-3-methyl-2-(2,2,2-trifluoroethyl)-2,3,4,5-tetrahydro-1H-pyrido[4,3-b]indol-1-yl)-phenyl)-1-(3-fluoropropyl) azetidin-3-amine]

Further lines, the molecule ahead of its results:

SMILES | ER-alpha MCF7HCS Sinf [%]
C[C@@H]1Cn2c(cc3ccccc32)[C@@H](c2c(F)cc(NC3CN(CCCF)C3)cc2F)N1CC(F)(F)F [Example 146, N-(3,5-Difluoro-4-((1R,3R)-3-methyl-2-(2,2,2-trifluoroethyl)-1,2,3,4-tetrahydropyrazino[1,2-a]indol-1-yl)phenyl)-1-(3-fluoropropyl)azetidin-3-amine] | −100
C[C@@H]1Cc2[nH]c3ccccc3c2[C@@H](c2c(F)cc(NC3CN(CCCF)C3)cc2F)N1CC(F)F [Example 150, N-(4-((1S,3R)-2-(2,2-difluoroethyl)-3-methyl-2,3,4,5-tetrahydro-1H-pyrido[4,3-b]indol-1-yl)-3,5-difluorophenyl)-1-(3-fluoropropyl) azetidin-3-amine] | −99.4

same assay, conditions: 4 hours, plateau of the maximal effect, DMSO and fulvestrant define 0% and 100% change in ESR1, Table 1b

ERalpha (WT) MCF7HCS (Sinf) | SMILES
−97.3 | COc1cc2c3c([nH]c2cn1)[C@@H](c1c(F)cc(NC2CN(CCCF)C2)cc1F)N(CC(F)(F)CO)[C@H](C)C3 [Example 161, 3-((1R,3R)-1-(2,6-Difluoro-4-((1-(3-fluoropropyl)azetidin-3-yl)amino)phenyl)-6-methoxy-3-methyl-3,4-dihydro-1H-pyrrolo[2,3-c:5,4-c′]dipyridin-2(9H)-yl)-2,2-difluoropropan-1-ol]
−92.3 | C[C@H]1Cc2sc3ccccc3c2[C@H](c2c(F)cc(NC3CN(CCCF)C3)cc2F)N1CC(F)(F)CO [Example 165, 3-((1S,3S)-1-(2,6-difluoro-4-((1-(3-fluoropropyl)azetidin-3-yl)amino)phenyl)-3-methyl-3,4-dihydrobenzo[4,5]thieno[3,2-c]pyridin-2(1H)-yl)-2,2-difluoropropan-1-ol]
−101 | C[C@@H]1Cc2sc3ccccc3c2[C@@H](c2c(F)cc(NC3CN(CCCF)C3)cc2F)N1CC(F)(F)CO [Example 166, 3-((1R,3R)-1-(2,6-difluoro-4-((1-(3-fluoropropyl)azetidin-3-yl)amino)phenyl)-3-methyl-3,4-dihydrobenzo[4,5]thieno[3,2-c]pyridin-2(1H)-yl)-2,2-difluoropropan-1-ol]

biological target: T1, estrogen receptor alpha (ESR1) in MCF7 breast cancer cells; test: as above; assay type: cell-based; design: MCF7 breast cancer cells were seeded on day 1 at a density of 10,000 cells per well; endogenous in cells; host or cells: MCF7 breast cancer cells; settings: 4 hours, plateau of the maximal effect, DMSO and fulvestrant define 0% and 100% change in ESR1, Table 1b
Method: All of the exemplary Formula I, II, and III compounds in Tables 1a and 1b were made and characterized by LCMS [M+H]^+ (liquid chromatography mass spectroscopy) with detection of parent ion. All of the exemplary Formula I, II, and III compounds in Tables 1a and 1b were tested for binding to ERa (Estrogen Receptor alpha) and biological activity according to the assays, protocols, and procedures of Examples 901-907. ER-alpha MCF7 HCS Sinf (%) values in Tables 1a and 1b were measured by the Breast Cancer Cell ERa High Content Fluorescence Imaging Degradation Assay of Example 901. ER-alpha MCF7 HCS EC50 (μM) values in Tables 1a and 1b were measured by the in vitro cell proliferation assays described in Examples 902 and 903. The rat uterine wet weight assays of Examples 906 and 907 allow rapid determination of compound antagonist activity in an ER responsive tissue (immature rat uterus) while competing against the native ER ligand estradiol, i.e. antagonist mode (Ashby, J.; et al (1997) Regulatory toxicology and pharmacology: RTP, 25 (3):226-31). […]
MCF7 breast cancer cells were seeded on day 1 at a density of 10,000 cells per well in 384 well poly-lysine coated tissue culture plate (Greiner # T-3101-4), in 50 μL/well RPMI (phenol red free), 10% FBS (Charcoal stripped), containing L-glutamine. […] Quantitative fluorescence imaging of ESR1 was carried out using a Cellomics Arrayscan V (Thermo). […]

ERalpha (WT) MCF7HCS (Sinf) | SMILES
−93 | C[C@@H]1Cc2oc3ccccc3c2[C@@H](c2c(F)cc(OCCN3CC(CF)C3)cc2F)N1CC(F)(F)CO [Example 170]
